Experimental data from patent US9180171B2, “Method of regulating fertilizing ability using cyclic ADP-ribose and CD38” (Industrial Cooperation Foundation Chonbuk National …, priority 2011, dated 2015).
“Also recorded” adds a separate entry of the source.

Assays:
[1] = system: mouse oocytes; assay: In vitro fertilization test; format: cell-based, mice; conditions: prostasome-bound sperm pretreated with antagonist
Experimental: In vitro fertilization was performed using a modification of the method of Ren et al. (Ren et al., Nature 413, 603-609 (2001)). 10-12-week-old mice were injected with pregnant mare serum gonadotropin (PMSG) (5 IU; Sigma-Aldrich), and after 48 hours, injected with human chorionic gonadotropin (hCG) (5 IU; Sigma-Aldrich). 14 hours after the final injection, the uterine tube was removed and perfused with IVF medium (Medicult, USA), and the released oocytes were collected using a low-magnification microscope. In order to collect sperm, the epididymis of male mice was removed and cut into small pieces with scissors in the same medium, and swum-out sperm were collected. The number of cells in the sperm was measured, and the sperm were used in the test.

[2] = system: sperm; assay: Measurement of calcium in sperm cells (fluo-3, confocal microscopy); format: cell-based, human
Experimental: In order to measure intracellular calcium release, the sperm suspension pretreated with fluo-3 (molecular probe, USA) was titrated in a confocal dish (SPL, Seoul, Korea) coated with poly-L-lysine (Sigma-Aldrich, USA) and was allowed to react in a CO2 incubator for 20 minutes to attach the cells. Calcium in the cells was measured by a confocal microscopy system (Nikon) using the method of Tsien et al. (Tsien et al., Nature 295, 68-71 (1982)).

[3] = system: sperm; assay: Test for motility of sperm by CD38; format: cell-based; conditions: for CD38-induced increase in motility of sperm with inhibitor: sperm treated with inhibitor, then CD38; for motility of sperm: sperm treated with CD38
Experimental: The relationship between CD31 activation by CD38 and sperm motility was analyzed. […] Also, it was seen that, when sperm were treated with the ERK1/2 inhibitor PD98059 and the ras-GTP inhibitor (FTI-277) and then treated with CD38, the increase in the motility of the sperm was inhibited.

[4] = system: sperm; assay: Acrosome reaction of sperm by CD38 (ConA-FITC, A23187); format: cell-based; conditions: for acrosome reaction of CD38-treated sperm with inhibitor: inhibitor of downstream signaling of CD31
Experimental: To examine the acrosome reaction of sperm, ConA-FITC binding specifically to the acrosome of sperm was used. The isolated sperm were allowed to react with purified CD38 at 37° C. for 2 hours, and then were treated for 40 min with calcium ionophore A23187 that increases calcium in sperm to induce the acrosome reaction of sperm. Then, the sperm were placed on a glass slide, and the acrosome reaction of the sperm was examined with a fluorescence microscope.

[5] = system: sperm; assay: Formation of cGDPR, cyclic ADP-ribose and NAADP in prostasome-bound or -unbound sperm; format: cell-based, human
Experimental: The isolated sperm were diluted with a weakly alkaline buffer or fusion buffer (150 mM NaCl, 1 mM CaCl2, 1 mM MgCl2, 5 mM glucose with either 2 mM Hepes (pH 8.0) or 20 mM MES (pH 5.0, fusion buffer)) containing 0.32 M sucrose. The dilution was mixed with prostasome such that the ratio of prostasome:sperm protein was 2:1. The mixture was allowed to react at 37° C. for 15 minutes. The reaction product was centrifuged at 600×g for 10 minutes, and the precipitate was collected, resuspended in BWW buffer and used in the experiment. […] Also, the binding of prostasome was the highest at a pH of 5.0 similar to the internal acidity of the female vagina and decreased toward alkaline pH values. […] In order to examine the formation of cyclic ADP-ribose and nicotinic acid adenine dinucletide phosphate which are typical metabolites of CD38, the sperm to which prostasome was unbound or bound was treated with progesterone, after which the level of each molecule in the sperm was measured at varying points of time.

[6] = system: sperm; assay: Test for sperm motility by prostasome (CASA); format: cell-based, human; conditions: prostasome-bound sperm treated with progesterone
Experimental: Sperm motility was measured using a CASA (computer assisted sperm analysis) system (IVOS, Hamilton Thorne Biosciences, USA). The sperm suspension was titrated onto a sperm analysis slide (2X-CEL, Hamilton Thorne Biosciences, USA) having a depth of 20 μm and was automatically photographed using a 4× magnification lens, followed by analysis.

[7] = target: T1, CD31 (Homo sapiens, UniProt P16284); assay: Test for activation of CD31 in sperm by CD38 (immunoprecipitation, Western blot); format: cell-based; conditions: sperm treated with 600 ng/ml CD38 for 0, 15, 30 min
T1 construct: endogenous in cells; host or cells: isolated sperm
Experimental: In order to test the activation of CD31 in sperm, the isolated sperm were treated with 600 ng/ml CD38 for each of 0 min, 15 min and 30 min, and then buffer was added thereto to lyse the cells. Also, CD31 antibody was used to perform immunoprecipitation, and Western blot was performed using each antibody in order to examine the phosphorylation of CD31 and to examine interacting proteins.

N=c1c2nc(Br)n3c2ncn1C1OC(COP(=O)(O)OP(=O)(O)OCC2OC3C(O)C2O)C(O)C1O (stereo not drawn) [8-Br-cADPR]
reduction of fertilizing ability [1]: about 70%
pattern of a continuous increase in calcium by progesterone ([2]; prostasome-bound sperm pretreated with antagonist, then progesterone): inhibited

COC(=O)[C@H](CCSC)NC(=O)c1ccc(NC[C@@H](N)CS)cc1-c1ccccc1 [FTI-277]
CD38-induced increase in motility of sperm with inhibitor [3]: inhibited

COc1cccc(-c2cc(=O)c3ccccc3o2)c1N [PD98059]
acrosome reaction of CD38-treated sperm with inhibitor [4]: inhibited
CD38-induced increase in motility of sperm with inhibitor [3]: inhibited

CN(C)S(=O)(=O)c1ccc2c(c1)/C(=C/c1cc3c([nH]1)CCCC3)C(=O)N2 [Su6656]
acrosome reaction of CD38-treated sperm with inhibitor [4]: inhibited

CC(=O)[C@H]1CC[C@H]2[C@@H]3CCC4=CC(=O)CC[C@]4(C)[C@H]3CC[C@]12C [progesterone]
formation of nicotinic acid adenine dinucletide phosphate in sperm ([5]; prostasome-bound or -unbound sperm treated with progesterone): not formed
synthesis of cyclic ADP-ribose in sperm ([5]; prostasome-bound sperm treated with progesterone, within several seconds): rapidly increased
increase of sperm motility [6]: about 2 times
intracellular calcium release by progesterone ([2]; prostasome-bound sperm): intracellular calcium release immediately occurred
intracellular calcium reaction by progesterone ([2]; prostasome-unbound sperm): immediate calcium reaction

CD38: purified water-soluble CD38 (sCD38), ADP-ribosyl cyclase, a cell membrane protein
acrosome reaction of sperm ([4]; sperm with purified CD38 at 37° C. for 2 hours, then A23187 40 min): significantly increased
motility of sperm [3]: significantly increased
motility of sperm ([3]; listed as sCD38): increased
phosphorylation of CD31 [7]: increased with time; also recorded: increased over time
